Patent publication US20230122540A1, “SYSTEMS AND METHODS TO TRACK THE EVOLUTION OF SINGLE CELLS” (Genentech, Inc., priority 2020, published 2023)
Read-outs that look alike come from different tables or passages of the source.

Assays:
ATF4, CHOP, GADD34 = experiment: qRT-PCR of pro-death genes downstream of ER stress; format: cell-based, human; conditions: for induction of pro-death ER stress genes: PC9 cells, with GNE-104, very low non-toxic concentrations; for expression of key pro-death ISR genes downstream of ER stress (ATF4, CHOP, GADD34): PC9, HCC4006 and NCI-H1975 cells
Method: RNA extraction and qRT-PCR: RNA was extracted using Qiagen RNeasy Plus kit following manufacturer's instruction. RNA was reverse transcribed using High-Capacity cDNA Reverse Transcription Kit (Thermo Fisher Scientific Cat. No. 4368814). qPCRs were performed using TaqMan™ Fast Advanced Master Mix (Thermo Fisher Scientific Cat. No. 4444557) on ABI QuantStudio 7 Flex Real-Time PCR Systems. HPRT1 was used as the internal control to quantify relative gene expression levels. Taqman probes were obtained from Thermo Fisher Scientific (Cat. No. 431182, 4448490). These probes were used in the study: ATF4 Hs00909569_g1, DDIT3/CHOP Hs00358796_g1, PPP1R15A/GADD34 Hs00169585_m1, SLC7A5 Hs01001183_m1, ETV4 Hs00385910_m1, SPRY4 Hs00540086_m1, DUSP6 Hs04329643_s1, HPRT1 Hs02800695_m1.

PC9 and H1975 cells = experiment: Clonogenic / CellTiter-Glo assay with pharmacological ER stress modulators; format: cell-based
Method: Clonogenic assay: Cells were seeded at desired densities in two to three replicates in 6-well plates and allowed to attach overnight. The following day cells were treated with the indicated compounds. Media containing the appropriate compounds was replenished every 48-72 hours. At the end of the assay, the cells were washed once with PBS, fixed and stained with crystal violet solution (Sigma Aldrich, HT90132) for 20 minutes, washed with water, and allowed to dry before scanning. For experiments shown in FIG. 18E erlotinib concentration were determined to match the cell viability effect to 1 μM GNE-069 in each cell line, so that 1 μM erlotinib was applied to PC-9 and HCC2935, and 100 nM erlotinib was applied to HCC4006 and HCC827. For experiments shown in FIG. 27B, cells were treated with either DMSO or 1 μM ISRIB (Tocris Cat. No. 5284) for 24 h, and then co-treated with EGFR inhibitors for 8 days. For other experiments cells were treated with 1 μM GNE-104 for 24 h, and then co-treated with 0.5 μg/ml Tunicamycin (Sigma Aldrich, T7765), or 1 nM Thapsigargin (Sigma Aldrich, T9033) for three days.
Cell viability and cell death quantification: For experiments shown in FIGS. 24C, 27D, the indicated cells were seeded at desired densities in replicates in 24-well plates and allowed to attach overnight. The following day cells were treated with the indicated compounds. Media containing the appropriate compounds was replenished every 48 hours. At each media change, cell viabilities were quantified using CellTiter-Glo Luminescent Cell Viability Assay (Promega, G7572). For experiments shown in FIG. 191 and FIG. 29D, PC9 cells were seeded in replicates in 96-well plates and allowed to attach overnight. The following day cells were treated with the indicated compounds or compound combinations at the indicated concentrations. Induction of cell death was quantified 24 h post-treatment using Caspase-Glo 3/7 Assay System (Promega, G8093) and cell survival were measured 72 h post-treatment using CellTiter-Glo Luminescent Cell Viability Assay (Promega, G7572). […]

[1] = Crystal violet % Survival with ISR modulators (Example 3); format: cell-based
Method: Tunicamycin and Thapsigargin were used as inducers of ER stress, and Integrated Stress Response Inhibitor (ISRIB) was used to inhibit ISR activation. Cells were treated with Degrader, Degrader+Tunicamycin, or Degrader+Thapsigargin to assess the effect of ER stress on Degrader efficacy. In another experimental group, cells were treated either with Degrader, Erlotinib, or Erlotinib and ISRIB.

PC9 cells [2] = experiment: scRNA-seq gene expression in barcoded PC9 cells (Example 3); format: cell-based, human
Description: The above-described workflow was used to evaluate adaptation of mutated EGFR lung cancer cells to treatment strategies including EGFR kinase inhibition (Erlotinib) and EGFR protein degradation (Degrader G-104 or Degrader) using the PC9 (non-small cell lung carcinoma) cell line model. Six hundred PC9 cells containing unique barcodes were expanded separately for 12 days. The clones were then pooled into groups of cells with replicate barcodes and subjected to a first scRNA-seq on Day 1. Subsequently, the groups of cells were treated with either DMSO (vehicle control), Erlotinib, or Degrader. On Day 5 of the treatment, a second scRNA-seq was performed to evaluate an initial response of the cells to the treatments. Treatment with Erlotinib or Degrader was continued for approximately two more months. At the endpoint of the treatment, a final scRNA-seq was performed on the surviving cells. scRNA-seq data was analyzed with Next Generation Sequencing technologies, and barcode quantities were determined for both treatments, as illustrated in FIGS. 4A-4B.
Single cell RNA-seq data was further analyzed to evaluate how Degrader resistant clones respond differently to Erlotinib versus Degrader. […] Compared to Degrader, Erlotinib activated genes involved in ER protein processing pathways.
Thus, PC9 cells were treated with either siNTC+Erlotinib, siEGFR+Erlotinib, or siEGFR+DMSO, then analyzed for ISR and MAPK genes after 72 hrs (via scRNA-seq), and assessed for cell viability at Day 6. […] Results shown in FIG. 11D illustrate decreased efficacy of Erlotinib when combined with siEGFR, as indicated by greater numbers of viable cells in the Erlotinib+siEGFR treatment group compared to treatment by only Erlotinib.

PC9 cells [3] = experiment: TraCe-seq experiment (barcoded PC9 cells, scRNA-seq on day four); format: cell-based, human; conditions: fraction of cells in GO state inferred by gene expression, day four
Method: To conduct the TraCe-seq experiment, 600 PC9 cells carrying unique barcodes were randomly selected and these cells were expanded for ˜12 doublings to establish the starting population. Single cell transcriptional profiling on a fraction of this population at ˜30× coverage of the barcodes was performed to record the baseline transcriptional programs and relative clonal abundance. 200K of these cells were seeded and were treated with either erlotinib, GNE-104, or GNE-069. Cells were harvested on day four and profiled by 10×scRNA-seq to determine the relative fitness of each clone and capture treatment-induced transcriptional changes (FIG. 17D).
TraCe-Seq barcode assignment: TraCe-Seq barcode recovery from scRNA-Seq FASTQs was performed using Salmon (v. 0.1.1). Briefly, custom augmented Salmon index was created using human reference GRCh38 and transgene GFP fused to one of 100,000 30-nt GC-optimized barcode in library. Transcript expression of demultiplexed per-cell FASTQs were then quantified using custom Salmon index. Cells with single GFP-barcode expression were assigned to corresponding TraCe-Seq barcode. Cells with multiple TraCe-Seq barcodes expressed were assigned to a single TraCe-Seq barcode if expression one TraCe-Seq was 3-fold higher than other detected TraCe-Seq barcodes.

PC9 cells [4] = experiment: Initial response of PC9 cells to Erlotinib (viability, phase contrast imaging); format: cell-based, human; conditions: within five days, compared to the DMSO control
Method: Six hundred PC9 cells containing unique barcodes were expanded separately for 12 days. The clones were then pooled into groups of cells with replicate barcodes and subjected to a first scRNA-seq on Day 1. Subsequently, the groups of cells were treated with either DMSO (vehicle control) or Erlotinib. On Day 5 of the treatment, a second scRNA-seq was performed to evaluate an initial response of the cells to the treatments.

PC9 cells [5] = experiment: Anti-growth effects in PC9 cells (clonogenic assay, cell counting, Incucyte imaging); format: cell-based, human; conditions: 1 μM
Method: Compound dose matching: […] Clonogenic assay: Cells were seeded at desired densities in two to three replicates in 6-well plates and allowed to attach overnight. The following day cells were treated with the indicated compounds. Media containing the appropriate compounds was replenished every 48-72 hours. At the end of the assay, the cells were washed once with PBS, fixed and stained with crystal violet solution (Sigma Aldrich, HT90132) for 20 minutes, washed with water, and allowed to dry before scanning. […] For experiments shown in FIG. 27B, cells were treated with either DMSO or 1 μM ISRIB (Tocris Cat. No. 5284) for 24 h, and then co-treated with EGFR inhibitors for 8 days.

[6] = tested on: common EGFR mutant variants; experiment: in vitro kinase inhibition assay; format: biochemical; conditions: panel of 218 kinases
EGFR = biological target: T1, EGFR (Homo sapiens, UniProt P00533, DEL746-750); experiment: Western blot of EGFR and pEGFR in HCC827 cells; format: cell-based; conditions: HCC827 cells
T1 construct: does-dependent EGFR degradation induced by GNE-104 in HCC827 cells; endogenous in cells; host or cells: HCC827
Method: Immunoblotting: Immunoblotting performed using standard methods. Cells were briefly washed in ice-cold PBS and lysed in the following lysis buffer (1% NP40, 50 mM Tris, pH 7.8, 150 mM NaCl, 5 mM EDTA) plus protease inhibitor mixture (Complete mini tablets, Roche Applied Science, 11836170001) and phosphatase inhibitor mix (Thermo Fisher Scientific, 78420). Lysates centrifuged at 15,000 rpm for 10 minutes at 4° C. and the protein concentration determined by BCA (Thermo Fisher Scientific, 23227). Equal amounts of protein were resolved by SDS-PAGE on NuPAGE, 4-12% Bis-Tris Gels (Thermo Fisher Scientific, WG-1403) and transferred to nitrocellulose membrane (Bio-Rad, 170-4159). Membranes were blocked in blocking buffer (Li-Cor, 927-40000), incubated overnight with the indicated primary antibodies and analyzed by the addition of secondary antibodies IRDye 680LT Goat anti-Mouse IgG (Li-Cor, 926-68050) or IRDye 800CW Goat anti-Rabbit IgG (Li-Cor, 926-32211). The membranes were visualized on a Li-Cor Odyssey CLx Scanner. Anti-EGFR (MI-12-1) purchased from Medical and Biological Labs, anti-pEGFR (3777), anti β-Tubulin (2146) and anti-β-Actin (4970) purchased from Cell Signaling Technology. IR-conjugated secondary antibodies Goat anti-Mouse 680LT (926-68020), and Goat anti-Rabbit 800CW (926-32211) purchased from Li-Cor.

T1 sequence (P00533 with tags, fused parts or gaps DEL746-750): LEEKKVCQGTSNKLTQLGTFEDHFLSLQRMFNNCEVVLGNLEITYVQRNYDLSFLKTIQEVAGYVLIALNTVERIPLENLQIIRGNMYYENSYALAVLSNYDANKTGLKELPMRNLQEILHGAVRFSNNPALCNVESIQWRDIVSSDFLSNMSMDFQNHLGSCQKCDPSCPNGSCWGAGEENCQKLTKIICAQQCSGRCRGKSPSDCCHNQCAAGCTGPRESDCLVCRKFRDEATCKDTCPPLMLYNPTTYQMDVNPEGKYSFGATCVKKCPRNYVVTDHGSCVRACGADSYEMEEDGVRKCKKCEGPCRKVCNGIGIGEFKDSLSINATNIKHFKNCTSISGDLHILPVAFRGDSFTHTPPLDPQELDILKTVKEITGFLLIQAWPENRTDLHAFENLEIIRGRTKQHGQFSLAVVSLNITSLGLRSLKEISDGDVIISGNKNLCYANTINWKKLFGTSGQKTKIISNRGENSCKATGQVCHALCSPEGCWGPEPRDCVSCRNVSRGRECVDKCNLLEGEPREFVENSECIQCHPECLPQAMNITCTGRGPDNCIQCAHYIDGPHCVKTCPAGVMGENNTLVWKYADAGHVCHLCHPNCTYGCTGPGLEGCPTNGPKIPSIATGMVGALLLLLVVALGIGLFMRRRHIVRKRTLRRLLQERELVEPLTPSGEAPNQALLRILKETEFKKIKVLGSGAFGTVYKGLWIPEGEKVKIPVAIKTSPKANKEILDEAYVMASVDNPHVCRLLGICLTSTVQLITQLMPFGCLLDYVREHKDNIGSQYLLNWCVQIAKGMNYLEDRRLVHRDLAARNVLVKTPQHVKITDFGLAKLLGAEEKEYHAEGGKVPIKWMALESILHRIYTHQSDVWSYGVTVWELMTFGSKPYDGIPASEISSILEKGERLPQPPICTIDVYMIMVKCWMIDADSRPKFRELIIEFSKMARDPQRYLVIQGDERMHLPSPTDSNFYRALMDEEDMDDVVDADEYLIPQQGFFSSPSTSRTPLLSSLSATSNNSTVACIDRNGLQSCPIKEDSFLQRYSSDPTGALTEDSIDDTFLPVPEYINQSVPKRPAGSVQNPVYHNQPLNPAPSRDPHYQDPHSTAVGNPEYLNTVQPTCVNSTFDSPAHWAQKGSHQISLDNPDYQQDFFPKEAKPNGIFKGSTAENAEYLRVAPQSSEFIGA

## tunicamycin
ATF4, CHOP, GADD34
  induction of pro-death ER stress genes: greatly induced pro-death ER stress genes
PC9 and H1975 cells; PC9 cells, very low non-toxic concentrations of ER stress inducer
  cytotoxic activity of GNE-104 on co-treatment: enhanced the cytotoxic activity of the degrader GNE-104

## C/C=C(/C)C(=O)O[C@H]1C(C)=C2[C@H]([C@@H]1OC(=O)CCCCCCC)[C@@](C)(OC(C)=O)C[C@H](OC(=O)CCC)[C@@]1(O)[C@H]2OC(=O)[C@@]1(C)O [thapsigargin]
ATF4, CHOP, GADD34
  induction of pro-death ER stress genes: greatly induced pro-death ER stress genes
PC9 and H1975 cells
  cytotoxic activity of GNE-104 on co-treatment: enhanced the cytotoxic activity of the degrader GNE-104

## O=C(COc1ccc(Cl)cc1)NC1CCC(NC(=O)COc2ccc(Cl)cc2)CC1 (stereo not drawn) [ISRIB]
ATF4, CHOP, GADD34; ISRIB for 24 hours before adding EGFR kinase inhibitor
  activation of ATF4, CHOP, GADD34 induced by EGFR kinase inhibitors: blunted activation of ATF4, CHOP, and GADD34
PC9 and H1975 cells; ISRIB pre-treatment, PC9 and H1975 cells
  cell killing by EGFR kinase inhibitors: decreased cell killing in both PC9 and H1975 cells
[1]
  efficacy of Erlotinib on addition of ISRIB (cell viability): loss of efficacy of Erlotinib

## C#Cc1cccc(Nc2ncnc3cc(OCCOC)c(OCCOC)cc23)c1 [Erlotinib]
PC9 cells [2]; Day 5 of treatment
  ISR pathway / ATF4 and SLC7A5 expression: additionally upregulated on Day 5 of Erlotinib treatment
PC9 cells [2]; day 5 of treatment
  canonical MAPK target gene expression: strongly suppressed canonical MAPK target genes
PC9 cells [3]
  cell cycle arrest (GO): far greater cell cycle arrest (GO) than GNE-104
ATF4, CHOP, GADD34
  expression of key pro-death ISR genes downstream of ER stress (ATF4, CHOP, GADD34): significantly induced expression of key pro-death ISR genes
PC9 cells [4]
  reduction in viability: greater than 98%
PC9 cells [5]
  anti-growth effects (inhibiting cell growth): comparable activity by all three measures

## C=CC(=O)Nc1cc(Nc2nccc(-c3cn(C)c4ccccc34)n2)c(OC)cc1N(C)CCN(C)C [osimertinib]
ATF4, CHOP, GADD34
  expression of key pro-death ISR genes downstream of ER stress (ATF4, CHOP, GADD34): significantly induced expression of key pro-death ISR genes

## C#Cc1cccc(Nc2ncnc3cc(OCCOC)c(OCCOCC#CC#CCOCC(=O)N[C@H](C(=O)N4C[C@@H](O)CC4C(=O)NCc4ccc(-c5scnc5C)cc4)C(C)(C)C)cc23)c1 (stereo in doubt) [GNE-069, (2R,4S)-1-((S)-2-(2-((6-(2-((4-((3-Ethynylphenyl)amino)-7-(2-methoxyethoxy)quinazolin-6-yl)oxy)ethoxy)hexa-2,4-diyn-1-yl)oxy)acetamido)-3,3-dimethylbutanoyl)-4-hydroxy-N-(4-(4-methylthiazol-5-yl)benzyl)pyrrolidine-2-carboxamide]
PC9 cells [3]
  cell cycle arrest (GO): far greater cell cycle arrest (GO) than GNE-104
[6]
  potency and selectivity profile in in vitro kinase inhibition assays: comparable potency and selectivity profile as GNE-104
EGFR
  EGFR degradation: fails to engage VHL (due the specific stereochemistry in the VHL-binding moiety) and degrade EGFR
PC9 cells [5]
  anti-growth effects (inhibiting cell growth): comparable activity by all three measures
